Reference: patent EP0329225A2, “Acetylenic esters” (MERCK & CO. INC., priority 1988, dated 1989)

target: T1, Acetoacetyl-coenzyme A thiolase (Rattus norvegicus, UniProt Q5XI22); assay: Acetoacetyl-coenzyme A thiolase inhibition (coupled spectrophotometric assay, NADH oxidation at 340 nm); format: biochemical, Sprague Dawley rats; settings: not given
T1 construct: prepared from the livers of Sprague Dawley rats treated in the diet for one week with 0.075% lovastatin to induce the enzyme; from tissue; host or cells: liver of Sprague Dawley rats fed lovastatin
T1 sequence (Q5XI22 whole entry): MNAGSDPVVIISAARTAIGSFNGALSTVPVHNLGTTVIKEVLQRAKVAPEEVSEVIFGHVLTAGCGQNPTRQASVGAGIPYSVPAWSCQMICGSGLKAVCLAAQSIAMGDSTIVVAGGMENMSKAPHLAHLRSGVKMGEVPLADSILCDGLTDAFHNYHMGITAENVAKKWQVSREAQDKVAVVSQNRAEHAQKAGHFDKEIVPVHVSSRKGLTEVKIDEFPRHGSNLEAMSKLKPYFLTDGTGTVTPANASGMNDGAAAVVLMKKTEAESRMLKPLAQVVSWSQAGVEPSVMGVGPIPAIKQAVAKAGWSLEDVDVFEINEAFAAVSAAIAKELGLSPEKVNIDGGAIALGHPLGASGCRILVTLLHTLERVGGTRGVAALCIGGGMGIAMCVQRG
Method: Acetoacetyl-coenzyme A thiolase was prepared from the livers of Sprague Dawley rats treated in the diet for one week with 0.075% lovastatin to induce the enzyme. Acetoacetyl-coenzyme A thiolase was purified through the DEAE-cellulose step essentially as described by Mehrabian et al., J. Biol. Chem., 261, 16249-16255 (1986), but modified slightly by carrying out the 30-50% ammonium sulfate precipitation of the enzyme and a dialysis before the DEAE-cellulose step. The 0.06 M eluate described by Mahrabian et al. contained the acetoacetyl-coenzyme A thiolase. The isolate was concentrated by ammonium sulfate precipitation, dissolved in the buffer used for elution, and stored at -70°C.
Inhibition of acetoacetyl coenzyme A thiolase was measured by coupling the formation of acetoacetyl-coenzyme A to its subsequent reduction of β-hydroxybutyryl-coenzyme A dehydrogenase to β-hydroxybutyryl-coenzyme A and monitoring the resultant oxidation of NADH with a spectrophotometer set at 340 nm. Mixtures of 0.016 units of β-hydroxybutyryl-coenzyme A dehydrogenase, 16.2 µg of acetoacetyl coenzyme A thiolase, and test quantities of the test compounds dissolved in dimethyl sulfoxide and water to bring to final volume were incubated with 71.4 mM Tris-HCl (pH 7.5). 0.71 mM EDTA, 10.7 mM magnesium chloride, 0.53 mM dithiothreitol, 0.21 mM NADH (total volume of 0.140 ml) until a stable base line was obtained. Reaction was initiated by addition of 10 µl of acetoacetyl-coenzyme A, giving a concentration of 2.85 mM. Reaction was measured at room temperature for a time period necessary to produce a measurable reaction rate. An IC₅₀, the concentration that inhibits 50% of the acetoacetyl-coenzyme A thiolase activity, was determined for each test compound. The IC₅₀'s for representative compounds of this invention are listed in Table I. The IC₅₀ of 5-(1-hydroxy-2,4,6-heptatriynyl)-2-oxo-1,3-dioxolane-4-heptanoic acid has been reported as 1 x 10⁻⁸ M. See U.S. Patent Application Serial No. 07/053,973, filed May 26, 1987.

| SMILES | IC50 |
| --- | --- |
| COC(=O)CCCCCCCCC(O)C#CC#CC#C[Si](C)(C)C (stereo not drawn) [Ex. 3, 10-Hydroxy-16-(trimethylsilyl)-11,13,15-hexadecatriynoic acid, methyl ester] | 17 nM |
| COC(=O)CCCCCCCCC(O)C#CC#C[Si](C)(C)C (stereo not drawn) [Ex. 5, 10-Hydroxy-14-(trimethylsilyl)-11,13-tetradecadiynoic acid, methyl ester] | > 62000 nM |

same assay, conditions: enzyme from livers of lovastatin-treated rats; room temperature, pH 7.5; read-out: IC₅₀

| SMILES | IC50 |
| --- | --- |
| C#CC#CC#C[C@@H](O)[C@@H](O)[C@@H](O)CCCCCCC(=O)O [Ex. 1, 8(S),9(S),10(R)-Trihydroxy-11,13,15-hexadecatriynoic acid] | 150 nM |
| C#CC#CC(O)CCCCCCCCC(=O)OC (stereo not drawn) [Ex. 6, 10-Hydroxy-11,13-tetradecadiynoic acid, methyl ester] | 26000 nM |
| C#CC#CC#CC(O)CCCCCCCCC(=O)OC (stereo not drawn) [Ex. 4, 10-Hydroxy-11,13,15-hexadecatriynoic acid, methyl ester] | 24 nM |
| C#CC#CC#C[C@@H](O)[C@@H](O)[C@@H](O)CCCCCCC(=O)OC [Ex. 2, 8(S),9(S),10(R)-Trihydroxy-11,13,15-hexadecatriynoic acid, methyl ester] | 38000 nM |
